Assay results published in publication PMC10222839, “Development of Novel Small-Molecule Activators of Pyruvate Kinase Muscle Isozyme 2, PKM2, to Reduce Photoreceptor Apoptosis” (Pharmaceuticals, 2023).
Values after ≈ are worked out from the molar mass of the structure shown.

How the values were obtained:
[1] = test system: cleaved caspase-8-positive cells in the retina; assay: Experimental retinal detachment, flow cytometry of cleaved caspase 8; assay type: in vivo; conditions: rat retinal detachment, highest dose tested (1 mM final vitreous), intravitreal, 3 days, versus DMSO
Text: Caspase activation, including caspase 8, increases 3 days status post experimental retinal detachment and has been validated to be a marker of photoreceptor apoptosis and the extent of retinal-detachment-induced photoreceptor cell death. Additionally, this caspase activation coincides with the peak of the terminal deoxynucleotidyl transferase dUTP nick end labeling (TUNEL) staining of photoreceptors, specifically after experimental retinal detachment in rodents. So, the detection and quantification of cleaved caspase 8 can be used as a marker of photoreceptor death after experimental retinal detachment and to assess the efficacy of neuroprotective agents. As such, different concentrations of compound 2 or its vehicle, DMSO, were injected at the time of retinal detachment creation in rats, and the retinas were harvested 3 days later to assess caspase 8 activation.
Detachments were created in rats as previously outlined. In brief, rats were anesthetized with ketamine (100 mg/mL) and xylazine (20 mg/mL), and their pupils were dilated as above. […]
After washing the cells in ice-cold PBS, the cells were fixed with 4% paraformaldehyde for 20 min at room temperature followed by two PBS washes via centrifugation at 300× g for 10 min at 4 °C. […] Data were analyzed with FCS Express software (De Novo Software, Ontario, CA, USA).

[2] = test system: caspase 3 and 7 activation in 661W cells; assay: Caspase 3/7 activity assay in 661W cells (Caspase-Glo 3/7); assay type: cell-based
Method: (§1) To be confident the pyridazinoindolone core could be utilized in future medicinal chemistry efforts, its photoreceptor neuroprotective effect was assessed. […] Fas signaling has a critical role in caspase activation and photoreceptor apoptosis after experimental retinal detachment. 661W cells die via caspase-mediated mechanisms, and the Fas-ligand (FasL) treatment of these cells leads to the activation of caspases and subsequent death, analogous to the in vivo experimental retinal detachment model. Furthermore, similar to photoreceptors, 661W cells express PKM2 (Figure 4a), and these cells have been used to garner information on the role of metabolism in photoreceptor degeneration. As such, this is a suitable in vitro model of photoreceptor stress that can be utilized to assess the consequences of reprogramming metabolism by pharmacologically activating PKM2 [9]. 661W cells were treated with FasL and either compound 2 or vehicle (DMSO).
(§2) Caspase 8 and caspase 3/7 activity was measured using luminescent assay kits (Caspase-Glo 8 and 3/7 Assay Systems, Promega, Madison, WI, USA, Cat Nos. G8200 and G8090, respectively). […] As previously published, caspase activity was measured 8 h after treatment by incubating cells with substrate for 1 h as per the manufacturer’s instructions. A plate reader luminometer (BMG Labtech, Inc., Cary, NC, USA) assessed luminescence.

[3] = test system: caspase 8 activation in 661W cells; assay: Caspase 8 activity assay in 661W cells (Caspase-Glo 8); assay type: cell-based
Method: as §1, §2

[4] = Aqueous solubility (Eurofins Panlabs, HPLC-UV/Vis); assay type: physicochemical; conditions: aqueous buffer, kinetic from dmso stock; PBS, pH 7.4, 24 h, room temperature (Table 1)
Method: In brief, each compound was tested at a concentration of 200 μM in PBS, pH 7.4, and room temperature. […] The area of the principal peak in a calibration standard for each compound (200 μM) in organic solvent (60/40 v/v% methanol: water) was compared to the area of the corresponding peak in the PBS sample [42]. Compounds 16–21 underwent solubility testing at Analiza (Cleveland, OH, USA), a contract research organization. Five hundred microliters of PBS, pH 7.4 was added to each amount of compound provided. The samples were vortexed briefly and then placed on a rotary shaker at 200 RPM for 24 h at ambient temperature. Thereafter, the samples were vacuum filtered through a 0.45-micron membrane, and the filtrates were injected into a nitrogen detector for quantification. The nitrogen detector was calibrated using standards, and the filtrates were quantitated based on the calibration curve.

[5] = test system: 661W cells; assay: Cell viability of 661W cells (RealTime-Glo MT); assay type: cell-based; conditions: for cell viability: in presence of FasL, 48 h, versus vehicle
Method: as §1
A luminescent assay kit (RealTime-Glo MT Cell Viability Assay, Promega, Madison, WI, USA, Cat No. G9711) was utilized to assess cell viability. As above, 661W cells were seeded in 96-well plates (Nunc, Rochester, NY, USA) at 2500 cells/well 1 day before treatment. The 661w cells were also pre-treated with compound 2 or DMSO for 2 h before adding 500 ng/mL FasL and 250 ng/mL HA. Viability was measured 48 h after the addition of these latter reagents. As with the caspase assays, luminescence was monitored via a plate reader luminometer (BMG Labtech, Inc., Cary, NC, USA).

[6] = no FasL, concentration near AC50 or more than 10-fold greater

caspase 3 and 7 activity, compound alone [2, 6]: no significant effect
caspase 8 activity, compound alone [3, 6]: no significant effect
solubility at 24 h [4]: 99.8 µM (≈ 36.6 µg/mL)
Compound: Cn1c2cc([S+](C)[O-])ccc2c2cnn(Cc3cccc(N)c3)c(=O)c21 (stereo not drawn) [Compound 2]
percentage of cleaved caspase-8-positive cells in the retina [1]: statistically significantly reduced
caspase 3 and 7 activation ([2]; in presence of 500 ng/mL FasL, highest concentration tested, 8 h, versus DMSO): significantly decreased
caspase 8 activation ([3]; in presence of 500 ng/mL FasL, all concentrations tested, 8 h, versus DMSO): significantly decreased
cell viability ([5]; 200 nM): significantly improved
cell viability ([5]; 2 μM): trended towards improved cell viability
cell viability, compound alone [5, 6]: no significant effect
